US8680111B2 (Pfizer Inc., priority 2012, dated 2014)

Key:
[1] = molecular target: T1, L1196M EML4-ALK (NIH-3T3 EML4-ALK v1 L1196M cells) (Homo sapiens, UniProt Q9UM73, L1196M); test: Cellular phospho-ALK (Tyr1604) ELISA assay for L1196M EML4-ALK; assay type: cell-based; conditions: NIH-3T3 EML4-ALK v1 L1196M cells, 1 hour, phospho-ALK (Tyr1604); read-out: ELISA assay for L1196M EML4-ALK (IC50)
T1 construct: expressed in transfected cells; the other entry of the earlier key: EML4 (Q9HC35, Echinoderm microtubule-associated protein-like 4)

[2] = molecular target: T2, WT EML4-ALK (NIH-3T3 EML4-ALK wt v1 cells) (Homo sapiens, UniProt Q9UM73); test: Cellular phospho-ALK (Tyr1604) ELISA assay for WT EML4-ALK; assay type: cell-based; conditions: 1 hour, read-out: ELISA assay for WT EML4-ALK (IC50)
T2 construct: expressed in transfected cells; the other entry of the earlier key: EML4 (Q9HC35, Echinoderm microtubule-associated protein-like 4)
Experimental: Cellular Phospho-ALK (Tyr1604) ELISA Assay for EML4-ALK:
The cells were maintained at 37° C. in a 5% CO2 incubator in DMEM (Invitrogen, Carlsbad, Calif.) medium supplemented with 1% L-glutamine, 1% penicillin and streptomycin, 1 ug/ml puromycin and 10% new born calf serum (NCS) in T-75 flasks.
Cells were washed with PBS and re-suspended in DMEM medium supplemented with 0.5% NCS and 1% pen/strep and seeded into 96-well plates at density of 20,000 cells/well/100 μl and incubated in the incubator at 37° C. and 5% CO2. After 20 hours of incubation, 100 μl of assay media (DMEM) in presence of designated PF-compounds concentrations or controls (DMSO) were added into plates and incubated for 1 hour in the incubator. Media was then removed and lysis buffer, containing phosphatase inhibitors and phenylmethanesulfonyl fluoride (PMSF), was added to wells and shaken at 4° C. for 30 minutes to generate protein lysates.
A phospho-ALK (Tyr1604) rabbit antibody was coated onto the 96-well microplates. 50 μl of cell lysates were added to the antibody coated plate and incubated at room temperature for 2 hours. Following extensive washing with 0.1% Tween 20 in PBS to remove unbound materials, ALK mouse mAb was added to detect captured phospho-ALK (Tyr1604) and phospho-ALK fusion proteins. Anti-mouse IgG, HRP-linked antibody was then used to recognize the bound detection antibody. Finally, the chemiluminescent reagent was added and incubated for 10 minutes for signal development. The assay plates were read in the Envision plate reader in the luminescent mode. IC50 values were calculated by a concentration-response curve fitting using a four-parameter analytic method.

[3] = molecular target: T3, human recombinant wild-type ALK kinase domain (amino acids 1093-1411) (Homo sapiens, UniProt Q9UM73); test: Wild-type ALK enzyme assay (microfluidic mobility shift); assay type: biochemical; conditions: ATP 60 μM, competitive inhibition fit, read-out: WT ALK enzyme assay (Ki)
T3 construct: ALK kinase domain (amino acids 1093-1411); made in house
Experimental: The reactions were incubated for 1 h at room temperature, stopped by the addition of 0.1 M EDTA, pH 8, and the extent of reactions (˜15-20% conversion with no inhibitor) was determined after electrophoretic separation of the fluorescently labeled peptide substrate and phosphorylated product on an LabChip EZ Reader II (Caliper Life Sciences, Hopkinton, Mass.).

[4] = molecular target: T4, human recombinant L1196M ALK kinase domain (amino acids 1093-1411) (Homo sapiens, UniProt Q9UM73, L1196M); test: L1196M mutant ALK enzyme assay (microfluidic mobility shift); assay type: biochemical; conditions: ATP 60 μM, 0.5 nM enzyme, competitive inhibition fit; read-out: L1196M ALK enzyme assay (Ki)
T4 construct: ALK kinase domain (amino acids 1093-1411); made in house

| SMILES | IC50 [1] | IC50 [2] | Ki [3] | Ki [4] |
| --- | --- | --- | --- | --- |
| COc1nn(C)c2c1-c1cnc(N)c(c1)OC(C)c1cccnc1C(=O)N(C)C2 (single isomer, unassigned) [Example 65, 7-amino-3-methoxy-1,10,16-trimethyl-16,17-dihydro-1H-8,4-(metheno)-pyrazolo[4,3-g]pyrido[2,3-l][1,4,10]oxadiazacyclotetradecin-15(10H)-one] | 313 nM | 9.36 nM | 0.88 nM | 9.8 nM |
| COc1nn(C)c2c1-c1cnc(N)c(c1)OC(CF)c1cc(F)ccc1C(=O)N(C)C2 (single isomer, unassigned) [Example 86, 7-amino-12-fluoro-10-(fluoromethyl)-3-methoxy-1,16-dimethyl-16,17-dihydro-1H-8,4-(metheno)pyrazolo[4,3-h][2,5,11]benzoxadiazacyclotetradecin-15(10H)-one] | 2.57 nM | 0.45 nM | < 0.2 nM | 0.1 nM |
| COc1nn(C)c2c1-c1cnc(N)c(n1)OCc1cc(F)ccc1C(=O)N(C)C2C (single isomer, unassigned) [Example 122, 7-amino-12-fluoro-3-methoxy-1,16,17-trimethyl-16,17-dihydro-1H-8,4-(azeno)pyrazolo[4,3-h][2,5,11]benzoxadiazacyclotetradecin-15(10H)-one] | 52.3 nM | 9.27 nM | 0.27 nM | 0.7 nM |
| COc1nn(C)c2c1-c1cnc(N)c(n1)OCc1cc(F)ccc1C(=O)N(C)C2C (single isomer, unassigned) [Example 123, 7-amino-12-fluoro-3-methoxy-1,16,17-trimethyl-16,17-dihydro-1H-8,4-(azeno)pyrazolo[4,3-h][2,5,11]benzoxadiazacyclotetradecin-15(10H)-one] | > 10000 nM | 4790 nM | 205 nM | 333 nM |
| CN1Cc2c(c(C#N)nn2C)-c2cnc(N)c(n2)OC(CF)c2ccccc2C1=O (single isomer, unassigned) [Example 127] | 65 nM | 2.5 nM | 0.099 nM | 0.52 nM |
| COc1snc2c1-c1cnc(N)c(c1)O[C@H](C)c1cc(F)ccc1C(=O)N(C)C2 [Example 3, (10R)-7-amino-12-fluoro-3-methoxy-10,16-dimethyl-16,17-dihydro-8,4-(metheno)isothiazolo[4,3-h][2,5,11]benzoxadiazacyclotetradecin-15(10H)-one] | 22.2 nM | 0.99 nM | < 0.2 nM | 0.2 nM |
| CN1Cc2ccc(S(C)(=O)=O)cc2-c2cnc(N)c(c2)OCc2cc(F)ccc2C1=O [Example 5, 8-amino-3-fluoro-17-methyl-13-(methylsulfonyl)-16,17-dihydro-7,11-(metheno)dibenzo[g,l][1,4,10]oxadiazacyclotetradecin-18(5H)-one] | 156 nM | 12.1 nM | 0.34 nM | 3.4 nM |
| CC1Oc2cc(cnc2N)-c2ccccc2CN(C)C(=O)c2ccc(F)cc21 (stereo not drawn) [Example 8, 8-amino-3-fluoro-5,17-dimethyl-16,17-dihydro-7,11-(metheno)dibenzo[g,l]-[1,4,10]-oxadiazacyclotetradecin-18(5H)-one] | 680 nM | 12.1 nM | 0.9 nM | 10 nM |
| CCn1ncc2c1-c1cnc(N)c(c1)O[C@H](C)c1cc(F)ccc1C(=O)N(C)C2 [Example 27, (10R)-7-amino-3-ethyl-12-fluoro-10,16-dimethyl-16,17-dihydro-3H-8,4-(metheno)pyrazolo[3,4-h][2,5,11]benzoxadiazacyclotetradecin-15(10H)-one] | 157 nM | 9.15 nM | 0.38 nM | 5.3 nM |

Other lines, results leading:

| IC50 [1] | IC50 [2] | Ki [3] | Ki [4] | SMILES |
| --- | --- | --- | --- | --- |
| 5.36 nM | 0.841 nM | < 0.2 nM | < 0.1 nM | CC1Oc2nc(cnc2N)-c2c(nn(C)c2C#N)CN(C)C(=O)c2ccc(F)cc21 (single isomer, unassigned) [Example 32, 7-amino-12-fluoro-2,10,16-trimethyl-15-oxo-10,15,16,17-tetrahydro-2H-8,4-(azeno)pyrazolo[4,3-h][2,5,11]benzoxadiazacyclotetradecine-3-carbonitrile] |
| 296 nM | 4.78 nM | 1.2 nM | 10.2 nM | CC1Oc2cc(cnc2N)-c2c(nn(C)c2C#N)CN(C)C(=O)c2c(F)cccc21 (single isomer, unassigned) [Example 52, 7-amino-14-fluoro-2,10,16-trimethyl-15-oxo-10,15,16,17-tetrahydro-2H-8,4-(metheno)pyrazolo[4,3-h][2,5,11]benzoxadiazacyclotetradecine-3-carbonitrile] |
| 8.7 nM | 1.95 nM | 0.12 nM | 0.13 nM | CC1Cc2cc(cnc2N)-c2c(nn(C)c2C#N)CN(C)C(=O)c2ccc(F)cc21 (single isomer, unassigned) [Example 63, 7-amino-12-fluoro-2,10,16-trimethyl-15-oxo-2,9,10,15,16,17-hexahydro-8,4-(metheno)pyrazolo[3,4-d][2,8]benzodiazacyclotetradecine-3-carbonitrile] |
| 1190 nM | 407 nM | 34.4 nM | 33.3 nM | CC1Cc2cc(cnc2N)-c2c(nn(C)c2C#N)CN(C)C(=O)c2ccc(F)cc21 (single isomer, unassigned) [Example 64, 7-amino-12-fluoro-2,10,16-trimethyl-15-oxo-2,9,10,15,16,17-hexahydro-8,4-(metheno)pyrazolo[3,4-d][2,8]benzodiazacyclotetradecine-3-carbonitrile] |
| 109 nM | 95.6 nM | 3.1 nM | 1.9 nM | CC1Oc2cc(F)ccc2C(=O)N(C)Cc2nn(C)c(C#N)c2-c2cnc(N)c1c2 (single isomer, unassigned) [Example 76, 7-amino-12-fluoro-2,9,16-trimethyl-15-oxo-2,15,16,17-tetrahydro-9H-8,4-(metheno)pyrazolo[4,3-h][1,5,11]benzoxadiazacyclotetradecine-3-carbonitrile] |
| 3320 nM | 3390 nM | 75 nM | 45.8 nM | CC1Oc2cc(F)ccc2C(=O)N(C)Cc2nn(C)c(C#N)c2-c2cnc(N)c1c2 (single isomer, unassigned) [Example 77, 7-amino-12-fluoro-2,9,16-trimethyl-15-oxo-2,15,16,17-tetrahydro-9H-8,4-(metheno)pyrazolo[4,3-h][1,5,11]benzoxadiazacyclotetradecine-3-carbonitrile] |
| 180 nM | 42.8 nM | 1.18 nM | 2.9 nM | CC1c2nn(C)c(C#N)c2-c2cnc(N)c(n2)OCc2cc(F)ccc2C(=O)N1C (single isomer, unassigned) [Example 79, 7-amino-12-fluoro-2,16,17-trimethyl-15-oxo-10,15,16,17-tetrahydro-2H-8,4-(azeno)pyrazolo[4,3-h][2,5,11]benzoxadiazacyclotetradecine-3-carbonitrile] |
| 6.72 nM | 0.55 nM | 0.07 nM | 0.13 nM | CN1Cc2nn(C)c(C#N)c2-c2cnc(N)c(c2)OC(CF)c2cc(F)ccc2C1=O (single isomer, unassigned) [Example 85, 7-amino-12-fluoro-10-(fluoromethyl)-2,16-dimethyl-15-oxo-10,15,16,17-tetrahydro-2H-8,4-(metheno)pyrazolo[4,3-h][2,5,11]benzoxadiazacyclotetradecine-3-carbonitrile] |
| 642 nM | 115 nM | 3 nM | 16.7 nM | CC1Oc2nc(cnc2N)-c2c(nn(C)c2C#N)COCc2ccc(F)cc21 (single isomer, unassigned) [Example 105, 7-amino-12-fluoro-2,10-dimethyl-2,10,15,17-tetrahydro-8,4-(azeno)pyrazolo[4,3-h][2,11,5]benzodioxazacyclotetradecine-3-carbonitrile] |
| 0.5 nM | 0.068 nM | < 0.06 nM | < 0.05 nM | CC1Oc2nc(cnc2N)-c2c(nn(C)c2C#N)Cn2ccnc2-c2ccc(F)cc21 (single isomer, unassigned) [Example 108, 8-amino-3-fluoro-5,13-dimethyl-13,15-dihydro-5H-7,11-(azeno)imidazo[1,2-k]pyrazolo[4,3-h][2,5,11]benzoxadiazacyclotetradecine-12-carbonitrile] |
| 55.6 nM | 11 nM | 8.1 nM | 4.7 nM | CC1Oc2nc(cnc2N)-c2c(nn(C)c2C#N)Cn2ccnc2-c2ccc(F)cc21 (single isomer, unassigned) [Example 109, 8-amino-3-fluoro-5,13-dimethyl-13,15-dihydro-5H-7,11-(azeno)imidazo[1,2-k]pyrazolo[4,3-h][2,5,11]benzoxadiazacyclotetradecine-12-carbonitrile] |
| 184 nM | 28.1 nM | < 0.2 nM | 1.2 nM | CN1Cc2nn(C)c(C#N)c2-c2cnc(N)c(c2)OCc2cc(F)ccc2C1=O [Example 4, 7-amino-12-fluoro-2,16-dimethyl-15-oxo-10,15,16,17-tetrahydro-2H-8,4-(metheno)pyrazolo[4,3-h][2,5,11]benzoxadiazacyclotetradecine-3-carbonitrile] |
